Measurements: publication PMC3914206

Legend:
panel of 442 kinases [1] = target: T1, panel of 442 kinases (Homo sapiens, UniProt Q9UHD2); format: binding; set-up: KINOMEscan: ABL1(F317L)-phosphorylated / KINOMEscan: ABL1(H396P)-nonphosphorylated / KINOMEscan: ABL1(H396P)-phosphorylated / KINOMEscan: ABL1(M351T)-phosphorylated / KINOMEscan: ABL1(T315I)-phosphorylated / KINOMEscan: ABL1-nonphosphorylated / KINOMEscan: ABL1-phosphorylated / KINOMEscan: ACVR2A / KINOMEscan: ACVR2B / KINOMEscan: ADCK3 / KINOMEscan: ADCK4 / KINOMEscan: AKT1 / KINOMEscan: AKT3 / KINOMEscan: ALK / KINOMEscan: ARK5 / KINOMEscan: AURKA / KINOMEscan: AURKC / KINOMEscan: BIKE / KINOMEscan: BMPR1A / KINOMEscan: BMPR1B / KINOMEscan: BMX / KINOMEscan: BRK / KINOMEscan: BRSK1 / KINOMEscan: BRSK2 / KINOMEscan: CAMK1 / KINOMEscan: CAMK1D / KINOMEscan: CAMK1G / KINOMEscan: CAMK2A / KINOMEscan: CAMK2B / KINOMEscan: AAK1 / KINOMEscan: CAMK2D / KINOMEscan: CAMK2G / KINOMEscan: ABL1(F317I)-nonphosphorylated / KINOMEscan: ABL1(F317I)-phosphorylated / KINOMEscan: ABL1(F317L)-nonphosphorylated: unit: % Ctrl; details: kinase TBK1; compound concentration 10 µM
T1 construct: purchased KINOMEscan
T1 sequence (Q9UHD2 1-729): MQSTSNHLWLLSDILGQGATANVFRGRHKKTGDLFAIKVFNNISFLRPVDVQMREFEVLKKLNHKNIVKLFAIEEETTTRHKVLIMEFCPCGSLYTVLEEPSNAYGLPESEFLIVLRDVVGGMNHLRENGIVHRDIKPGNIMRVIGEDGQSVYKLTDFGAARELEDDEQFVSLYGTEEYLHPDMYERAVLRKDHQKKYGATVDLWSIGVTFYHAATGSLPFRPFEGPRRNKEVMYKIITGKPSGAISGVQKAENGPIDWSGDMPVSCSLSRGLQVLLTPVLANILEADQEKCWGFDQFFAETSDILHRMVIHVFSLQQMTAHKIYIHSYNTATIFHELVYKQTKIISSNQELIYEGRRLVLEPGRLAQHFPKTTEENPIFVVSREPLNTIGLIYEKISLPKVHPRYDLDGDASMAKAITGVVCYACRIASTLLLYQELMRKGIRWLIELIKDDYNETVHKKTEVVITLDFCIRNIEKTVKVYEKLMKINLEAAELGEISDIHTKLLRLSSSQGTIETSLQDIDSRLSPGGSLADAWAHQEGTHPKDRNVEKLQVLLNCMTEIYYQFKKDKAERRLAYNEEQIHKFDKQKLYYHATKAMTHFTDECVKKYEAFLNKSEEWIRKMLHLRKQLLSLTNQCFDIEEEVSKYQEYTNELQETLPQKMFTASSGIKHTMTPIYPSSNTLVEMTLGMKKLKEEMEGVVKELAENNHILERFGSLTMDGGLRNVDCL
Description: (§1) We assessed the selectivity of members of this scaffold using the KINOMEscan methodology across a near comprehensive panel of 442 kinases [[18,27]].

panel of 442 kinases [2] = target: T2, panel of 442 kinases (Homo sapiens, UniProt O00238); format: binding; set-up: KINOMEscan: ABL1(F317L)-phosphorylated / KINOMEscan: ABL1(H396P)-nonphosphorylated / KINOMEscan: ABL1(H396P)-phosphorylated / KINOMEscan: ABL1(M351T)-phosphorylated / KINOMEscan: ABL1(T315I)-phosphorylated / KINOMEscan: ABL1-nonphosphorylated / KINOMEscan: ABL1-phosphorylated / KINOMEscan: ACVR2A / KINOMEscan: ACVR2B / KINOMEscan: ADCK3 / KINOMEscan: ADCK4 / KINOMEscan: AKT1 / KINOMEscan: AKT3 / KINOMEscan: ALK / KINOMEscan: ARK5 / KINOMEscan: AURKA / KINOMEscan: AURKC / KINOMEscan: BIKE / KINOMEscan: BMPR1A / KINOMEscan: BMPR1B / KINOMEscan: BMX / KINOMEscan: BRK / KINOMEscan: BRSK1 / KINOMEscan: BRSK2 / KINOMEscan: CAMK1 / KINOMEscan: CAMK1D / KINOMEscan: CAMK1G / KINOMEscan: CAMK2A / KINOMEscan: CAMK2B / KINOMEscan: AAK1 / KINOMEscan: CAMK2D / KINOMEscan: CAMK2G / KINOMEscan: ABL1(F317I)-nonphosphorylated / KINOMEscan: ABL1(F317I)-phosphorylated / KINOMEscan: ABL1(F317L)-nonphosphorylated: unit: % Ctrl; details: Compound Concentration 10 µM
T2 construct: purchased KINOMEscan
Description: as §1

T2 sequence (O00238 14-502): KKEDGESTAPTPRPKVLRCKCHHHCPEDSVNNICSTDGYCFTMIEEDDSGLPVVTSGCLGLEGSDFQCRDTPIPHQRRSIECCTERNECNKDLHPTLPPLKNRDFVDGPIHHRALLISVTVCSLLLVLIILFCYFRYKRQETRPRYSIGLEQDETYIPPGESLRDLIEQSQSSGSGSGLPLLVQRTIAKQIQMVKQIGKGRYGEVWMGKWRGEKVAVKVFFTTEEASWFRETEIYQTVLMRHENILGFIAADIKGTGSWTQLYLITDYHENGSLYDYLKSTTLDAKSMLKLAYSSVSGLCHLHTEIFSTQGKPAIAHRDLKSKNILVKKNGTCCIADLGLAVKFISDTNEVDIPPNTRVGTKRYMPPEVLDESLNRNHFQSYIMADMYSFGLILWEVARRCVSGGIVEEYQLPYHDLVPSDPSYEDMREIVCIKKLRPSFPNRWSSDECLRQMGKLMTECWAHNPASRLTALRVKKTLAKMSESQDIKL

| SMILES | % Ctrl, TBK1 (panel of 442 kinases [1]) [% Ctrl] | KINOMEscan: BMPR1B (panel of 442 kinases [2]) |
| --- | --- | --- |
| COc1cc(C(=O)N2CCC(N3CCN(C)CC3)CC2)ccc1Nc1ncc2c(n1)N(C)c1ccccc1C(=O)N2C [15 (LRRK2-IN-1)] | 97 | 76 |
| COc1cc(C(=O)N2CCC(N3CCN(C)CC3)CC2)ccc1Nc1ncc2c(n1)N1CCc3cccc(c31)C(=O)N2C [Compound 24] | 98 | 97 |
| COc1cc(C(=O)N2CCC(N3CCN(C)CC3)CC2)ccc1Nc1ncc2c(n1)N(C1CCCC1)c1ccccc1C(=O)N2C [Compound 25, 11-cyclopentyl-2-((2-methoxy-4-(4-(4-methylpiperazin-1-yl)piperidine-1-carbonyl)phenyl)amino)-5-methyl-5H-benzo[e]pyrimido[5,4-b][1,4]diazepin-6(11H)-one] | 100 | 98 |
| CCOc1cc(C(=O)N2CCC(N3CCN(C)CC3)CC2)ccc1Nc1ncc2c(n1)N(C1CCCC1)c1ccccc1C(=O)N2C [Compound 26] | 100 | 100 |
